Measurements published in US20230314443A1, “METHODS OF IDENTIFYING INTERACTIONS OF A COMPOUND AND A CONDENSATE, OR A COMPONENT THEREOF, AND USES THEREOF” (Dewpoint Therapeutics, Inc., priority 2020, published 2023).

Experiments:
FUS-mEGFP/RNA droplets = biological target: T1, FUS-mEGFP/RNA droplets (Homo sapiens, UniProt P35637); test: Rho800 titration in FUS-mEGFP/RNA droplets (confocal imaging of Rho800 and FUS-mEGFP intensity inside droplets); settings: increasing Rho800 concentrations, FIG. 4
T1 sequence (P35637 1-526): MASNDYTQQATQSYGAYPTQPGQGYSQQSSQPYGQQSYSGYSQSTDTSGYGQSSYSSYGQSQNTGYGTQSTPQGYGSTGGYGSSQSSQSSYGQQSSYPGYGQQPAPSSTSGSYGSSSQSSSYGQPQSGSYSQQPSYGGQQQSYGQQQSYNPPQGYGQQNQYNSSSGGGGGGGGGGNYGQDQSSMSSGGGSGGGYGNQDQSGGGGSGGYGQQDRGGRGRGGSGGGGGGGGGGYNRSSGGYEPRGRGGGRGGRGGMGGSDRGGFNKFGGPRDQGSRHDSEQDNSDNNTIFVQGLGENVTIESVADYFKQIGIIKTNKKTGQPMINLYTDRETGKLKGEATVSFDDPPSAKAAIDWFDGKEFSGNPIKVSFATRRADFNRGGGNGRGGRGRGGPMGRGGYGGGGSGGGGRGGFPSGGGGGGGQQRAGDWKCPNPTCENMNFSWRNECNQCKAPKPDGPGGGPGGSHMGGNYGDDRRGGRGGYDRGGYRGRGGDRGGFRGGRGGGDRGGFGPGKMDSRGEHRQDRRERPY
Procedure: For partitioning study, droplets were prepared in a low-attachment 384-well plate by mixing recombinant FUS-mEGFP protein with synthetic PrD RNA, in the presence of the indicated concentration of Rho800, at a final concentration of […] FUS-mEGFP and 250 nM PrD RNA, using an automated liquid handler. The droplets were incubated at room temperature, in the dark for 4 hours and imaged using a high content confocal fluorescence microscope. Values indicated on the y-axis of FIG. 4 (n=3) were obtained by quantitative image analysis and represent the mean per well intensity of FUS-mEGFP and Rho800 inside segmented droplets.

FUS-RRM = biological target: T2, FUS-RRM (Homo sapiens, UniProt P35637); test: NMR 1H/15N-HSQC titration of FUS-RRM with Rho800 (chemical shift perturbations); assay type: binding; settings: CSPs by 1H/15N-HSQC 2D-NMR; FIG. 5A, 5B
T2 construct: made in house; host or cells: E. coli
T2 sequence (P35637 285-371 limits assumed): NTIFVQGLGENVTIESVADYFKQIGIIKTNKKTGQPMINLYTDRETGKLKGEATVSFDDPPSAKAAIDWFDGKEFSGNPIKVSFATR
Procedure: For binding study, recombinant ^15N-isotope and ^15N/^13C-labeled FUS-RRM proteins were expressed in E. coli and purified using published methods. NMR peak assignments were transferred from publicly available data repositories and confirmed using standard 3D NMR methods. […] protein was titrated with Rho800, ^1H/^15N-HSQC (heteronuclear single quantum coherence) were recorded, and chemical shift perturbations (CSPs) were calculated from the […] Rho800 spectra.

FUS-SNAP condensates = biological target: T3, FUS-SNAP condensates (Homo sapiens, UniProt P35637); test: Partitioning of RhoB into FUS-SNAP condensates formed in vitro (fluorescence and mass spectrometry); settings: RhoB 5 μM and 1.25 μM; fluorescence spectroscopy (RhoB-FL) and mass spectroscopy (RhoB-MS); fraction of RhoB in supernatant; FIG. 3A
T3 sequence (P35637 1-526): T1 sequence (P35637 1-526)
Procedure: SNAP-tagged FUS protein (“FUS-SNAP”) and RhoB were mixed and subjected to a phase separation condition. The final concentration of RhoB in the reaction was 5 μM and 1.25 μM. For control experiment, no RhoB was added. The partition characteristic of RhoB to FUS-SNAP condensate was then measured by both a fluorescence spectroscopy and a mass spectroscopy-based technique described herein.
Images of the condensate droplets were acquired with a confocal microscope for appropriate setting for RhoB. The background signal of FUS-SNAP droplets in the absence of RhoB was also recorded. Fluorescence intensity was measured inside a FUS-SNAP condensate and in a region next to (outside) the FUS-SNAP condensate, and corrected for background signal (no RhoB controls), to calculate the fraction of RhoB in extra-condensate solution (i.e., supernatant).
A mass spectrometry-based method was used to measure the partition characteristics of RhoB and compared to measurements obtained using the fluorescence-based assay above. […] The amount of RhoB in the supernatant and a reference reaction were measured using mass spectrometry. The partition characteristic was then calculated based on the fraction of RhoB in extra-condensate solution (i.e., supernatant).

FUS-SNAP protein = biological target: T4, FUS-SNAP protein (Homo sapiens, UniProt P35637); test: Binding affinity of RhoB to FUS-SNAP protein in the light phase (Dianthus MST); settings: FIG. 3B
T4 sequence (P35637 1-526): T1 sequence (P35637 1-526)
Procedure: The binding affinity (Kd) of RhoB to FUS-SNAP protein in the light phase was measured using Dianthus MST technology.

FUS-EGFP condensate = biological target: T5, FUS-EGFP condensate (Homo sapiens, UniProt P35637); test: Modulation of FUS-EGFP partitioning into the condensate by RhoB (confocal microscopy); assay type: biochemical; settings: 1.5 μM RhoB vs no RhoB; FIG. 3C
T5 sequence (P35637 1-526): T1 sequence (P35637 1-526)
Procedure: EGFP-tagged FUS protein (“FUS-EGFP”) and RhoB were mixed and subjected to phase separation condition. The final concentration of RhoB in the reaction was 1.5 μM. For control experiment, no RhoB was added. Images were acquired with a confocal microscope, and EGFP signal inside (I-in) and outside (I-out) of the FUS-EGFP condensate was measured as described above.

SMILES | partitioning of Rho800 into the condensate droplets (FUS-mEGFP/RNA droplets; 4 hours at room temperature) | partitioning of FUS-mEGFP in the condensate droplets in the presence of Rho800 (FUS-mEGFP/RNA droplets) | binding of Rho800 to FUS-RRM domain (FUS-RRM) | partitioning of RhoB into FUS-SNAP condensates (FUS-SNAP condensates) | Kd (FUS-SNAP protein) | partitioning of EGFP-labeled FUS into the condensate in the presence of RhoB (FUS-EGFP condensate)
N#CC1=c2cc3c4c(c2Oc2c1cc1c5c2CCCN5CCC1)CCC[N+]=4CCC3 [Rho800] | increased partitioning of the compound into the condensate droplets | FUS-mEGFP de-partitioning from the condensate droplets | binds directly to the FUS-RRM domain |  |  | 
CCN(CC)c1ccc2c(-c3ccccc3C(=O)O)c3ccc(=[N+](CC)CC)cc-3oc2c1 [RhoB, Rhodamine B] |  |  |  | partitions into FUS-SNAP condensates | 17.1 µM | partitioned less into the condensate
